From patent US9745321B2, “Fused pyrimidine compound, intermediate, preparation method therefor, and composition and application thereof” (SHANGHAI YINGLI PHARMACEUTICAL CO., LTD, priority 2013, dated 2017)

Tests used:
Raji cells = assay: Inhibition of TNF-α generation of human Raji cell induced by human IgM; type: cell-based; conditions: 10 μg/ml IgM stimulation, 24 hrs, ELISA
Description: Screening Test for a Drug on Inhibiting TNF-α Generation of Human Raji Cell Induced by Human IgM
• 1. Raji cell lines (source of human Burkitt's lymphoma) were employed. • 2. 1×10^5/well Raji cells were plated onto a 96-well cell culture plate. • 3. Compounds to be screened were diluted to the corresponding test concentrations and added into the cell culture system 30 minutes before IgM stimulation. • 4. 10 μg/ml IgM monoclonal antibody was added into the cell culture system to stimulate the cells generating TNF-α. • 5. 24 hrs later, the amount of TNF-α generated by the cell system was measured by ELISA method. • 6.

PI3Kα = PI3Kα (Homo sapiens (Human), UniProt P42336); assay: PI3Kα enzyme activity inhibition IC50 evaluation assay; type: biochemical; conditions: ratio PI3Kα vs PI3Kδ
PI3Kα, sequence (P42336 whole entry): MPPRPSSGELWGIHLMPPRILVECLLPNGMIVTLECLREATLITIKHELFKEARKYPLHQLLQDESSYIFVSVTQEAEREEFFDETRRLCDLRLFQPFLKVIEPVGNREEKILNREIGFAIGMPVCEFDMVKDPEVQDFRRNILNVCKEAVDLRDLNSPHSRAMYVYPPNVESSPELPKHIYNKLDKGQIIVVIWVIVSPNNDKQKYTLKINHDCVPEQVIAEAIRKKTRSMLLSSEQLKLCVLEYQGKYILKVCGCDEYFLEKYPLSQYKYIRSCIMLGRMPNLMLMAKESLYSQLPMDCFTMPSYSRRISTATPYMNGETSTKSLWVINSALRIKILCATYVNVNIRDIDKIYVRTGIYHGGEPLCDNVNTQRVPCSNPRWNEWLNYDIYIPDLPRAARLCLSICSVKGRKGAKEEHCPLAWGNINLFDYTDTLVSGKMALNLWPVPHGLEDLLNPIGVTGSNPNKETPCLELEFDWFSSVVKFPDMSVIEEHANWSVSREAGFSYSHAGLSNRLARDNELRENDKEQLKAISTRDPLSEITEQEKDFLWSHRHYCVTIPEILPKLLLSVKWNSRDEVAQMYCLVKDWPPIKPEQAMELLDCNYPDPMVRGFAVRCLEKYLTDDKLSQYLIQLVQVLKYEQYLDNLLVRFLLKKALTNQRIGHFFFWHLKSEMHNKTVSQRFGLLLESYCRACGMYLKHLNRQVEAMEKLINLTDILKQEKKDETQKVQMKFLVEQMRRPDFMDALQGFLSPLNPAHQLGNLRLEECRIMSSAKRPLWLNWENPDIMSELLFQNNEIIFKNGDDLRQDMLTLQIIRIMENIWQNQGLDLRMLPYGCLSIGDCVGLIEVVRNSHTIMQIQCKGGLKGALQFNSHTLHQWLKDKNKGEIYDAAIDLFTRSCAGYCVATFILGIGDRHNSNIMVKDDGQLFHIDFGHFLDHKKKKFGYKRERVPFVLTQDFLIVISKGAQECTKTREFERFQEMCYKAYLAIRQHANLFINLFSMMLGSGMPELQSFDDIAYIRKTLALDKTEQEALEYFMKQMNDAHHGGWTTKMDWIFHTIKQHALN
PI3Kα, sequence (P27986 whole entry partner): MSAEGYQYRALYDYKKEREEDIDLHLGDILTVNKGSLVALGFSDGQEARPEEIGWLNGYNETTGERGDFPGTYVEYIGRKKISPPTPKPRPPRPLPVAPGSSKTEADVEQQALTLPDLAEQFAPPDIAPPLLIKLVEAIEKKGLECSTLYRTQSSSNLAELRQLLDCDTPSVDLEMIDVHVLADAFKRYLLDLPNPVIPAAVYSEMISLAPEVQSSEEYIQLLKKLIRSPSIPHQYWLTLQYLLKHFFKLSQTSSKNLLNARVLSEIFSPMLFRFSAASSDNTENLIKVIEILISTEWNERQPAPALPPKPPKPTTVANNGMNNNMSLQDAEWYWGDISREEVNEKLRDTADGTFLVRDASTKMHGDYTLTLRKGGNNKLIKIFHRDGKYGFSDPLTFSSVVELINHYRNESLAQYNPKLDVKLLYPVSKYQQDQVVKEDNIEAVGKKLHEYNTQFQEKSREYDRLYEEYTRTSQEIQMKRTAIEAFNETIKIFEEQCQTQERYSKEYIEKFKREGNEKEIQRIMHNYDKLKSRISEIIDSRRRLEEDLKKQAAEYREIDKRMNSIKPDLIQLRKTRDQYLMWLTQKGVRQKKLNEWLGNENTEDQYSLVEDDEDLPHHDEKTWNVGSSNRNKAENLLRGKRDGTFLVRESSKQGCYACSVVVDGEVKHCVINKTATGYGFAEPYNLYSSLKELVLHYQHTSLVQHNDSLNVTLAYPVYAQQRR
Description: (§1) PI3Kα, PI3Kδ, PI3Kβ and PI3Kγ Enzyme Activity Inhibition IC50 Evaluation Assay
(§2) • 1. Buffer preparation: 50 mM HEPES, pH 7.5, 3 mM MgCl2, 1 mM EGTA, 100 mM NaCl, 0.03% CHAPS. • 2. Compound was formulated in 100% DMSO in a concentration gradient, and added to a 384-well plate to a final DMSO concentration of 1%. • 3. PI3Kα, PI3Kδ, PI3Kβ and PI3Kγ enzymes were diluted to an optimum concentration with the following buffer: 50 mM HEPES, pH 7.5, 3 mM MgCl2, 1 mM EGTA, 100 mM NaCl, 0.03% CHAPS, 2 mM DTT, and transferred to a 384-well plate and incubated with the compound for a certain time. • 4. Substrate was diluted to an optimum concentration with the following buffer: 50 mM HEPES, pH 7.5, 3 mM MgCl2, 1 mM EGTA, 100 mM NaCl, 0.03% CHAPS, 2 mM DTT, 50 μM PIP2, 25 μM ATP; then added to a 384-well plate to initiate the reaction, and for PI3Kα, PI3Kβ and PI3Kγ at room temperature reacted for 1 hr, for PI3Kδ at room temperature reacted for 2 hrs. For PI3Kβ and PI3Kγ, it was still necessary to further add 10 μL ADP-Glo Detection Reagent, and then equilibrated at room temperature for 30 minutes. • 5. Read Luminescense with FlexStation, and calculate the inhibition rate as the average of two tests.

PI3Kδ = PI3Kδ (Homo sapiens (Human), UniProt O00329); assay: PI3Kδ enzyme activity inhibition IC50 evaluation assay; type: biochemical; conditions: luminescence, 25 μM ATP, 50 μM PIP2, 2 hrs room temperature
PI3Kδ, sequence (O00329 whole entry): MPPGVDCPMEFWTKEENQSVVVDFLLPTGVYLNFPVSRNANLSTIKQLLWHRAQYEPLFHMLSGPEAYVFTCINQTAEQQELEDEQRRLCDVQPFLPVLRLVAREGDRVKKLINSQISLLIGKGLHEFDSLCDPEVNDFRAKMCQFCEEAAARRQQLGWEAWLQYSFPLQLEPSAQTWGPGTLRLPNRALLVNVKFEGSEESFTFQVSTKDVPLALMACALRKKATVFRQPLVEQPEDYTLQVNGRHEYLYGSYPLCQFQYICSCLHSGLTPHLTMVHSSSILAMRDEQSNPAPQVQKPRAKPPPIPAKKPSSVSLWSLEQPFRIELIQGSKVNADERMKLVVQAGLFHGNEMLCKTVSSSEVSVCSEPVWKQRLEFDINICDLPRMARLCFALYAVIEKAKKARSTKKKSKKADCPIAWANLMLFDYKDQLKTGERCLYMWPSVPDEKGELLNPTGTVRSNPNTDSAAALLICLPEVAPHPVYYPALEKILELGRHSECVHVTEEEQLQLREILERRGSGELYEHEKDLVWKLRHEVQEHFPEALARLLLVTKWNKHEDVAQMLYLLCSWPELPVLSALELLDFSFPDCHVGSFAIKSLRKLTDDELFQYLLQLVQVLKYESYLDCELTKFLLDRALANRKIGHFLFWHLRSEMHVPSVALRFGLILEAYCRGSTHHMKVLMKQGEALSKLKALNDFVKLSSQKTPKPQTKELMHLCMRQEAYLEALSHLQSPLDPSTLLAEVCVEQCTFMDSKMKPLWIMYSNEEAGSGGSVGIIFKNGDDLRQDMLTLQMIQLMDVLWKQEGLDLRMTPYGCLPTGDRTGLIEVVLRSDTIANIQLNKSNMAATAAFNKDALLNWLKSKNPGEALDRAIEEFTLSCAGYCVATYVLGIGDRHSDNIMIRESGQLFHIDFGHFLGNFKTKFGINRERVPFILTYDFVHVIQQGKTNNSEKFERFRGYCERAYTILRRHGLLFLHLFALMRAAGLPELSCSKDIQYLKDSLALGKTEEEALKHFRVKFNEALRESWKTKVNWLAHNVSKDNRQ
PI3Kδ, sequence (P27986 whole entry partner): as the sequence (P27986 whole entry partner) above
Description: as §1
as §2, with “Substrate was diluted to an optimum concentration with the following buffer: 50 mM HEPES, pH 7.5, 3 mM MgCl2, 1 mM EGTA, 100 mM NaCl, 0.03% CHAPS, 2 mM DTT, 50 μM PIP2, 25 μM ATP; then added to a 384-well plate to initiate the reaction, and for PI3Kα, PI3Kβ and PI3Kγ at room temperature reacted for 1 hr, for PI3Kδ at room temperature reacted for 2 hrs.” left out

PI3Kγ = PI3Kγ (Homo sapiens (Human), UniProt P48736); assay: PI3Kγ enzyme activity inhibition IC50 evaluation assay; type: biochemical; conditions: ratio PI3Kγ vs PI3Kδ
PI3Kγ, sequence (P48736 whole entry): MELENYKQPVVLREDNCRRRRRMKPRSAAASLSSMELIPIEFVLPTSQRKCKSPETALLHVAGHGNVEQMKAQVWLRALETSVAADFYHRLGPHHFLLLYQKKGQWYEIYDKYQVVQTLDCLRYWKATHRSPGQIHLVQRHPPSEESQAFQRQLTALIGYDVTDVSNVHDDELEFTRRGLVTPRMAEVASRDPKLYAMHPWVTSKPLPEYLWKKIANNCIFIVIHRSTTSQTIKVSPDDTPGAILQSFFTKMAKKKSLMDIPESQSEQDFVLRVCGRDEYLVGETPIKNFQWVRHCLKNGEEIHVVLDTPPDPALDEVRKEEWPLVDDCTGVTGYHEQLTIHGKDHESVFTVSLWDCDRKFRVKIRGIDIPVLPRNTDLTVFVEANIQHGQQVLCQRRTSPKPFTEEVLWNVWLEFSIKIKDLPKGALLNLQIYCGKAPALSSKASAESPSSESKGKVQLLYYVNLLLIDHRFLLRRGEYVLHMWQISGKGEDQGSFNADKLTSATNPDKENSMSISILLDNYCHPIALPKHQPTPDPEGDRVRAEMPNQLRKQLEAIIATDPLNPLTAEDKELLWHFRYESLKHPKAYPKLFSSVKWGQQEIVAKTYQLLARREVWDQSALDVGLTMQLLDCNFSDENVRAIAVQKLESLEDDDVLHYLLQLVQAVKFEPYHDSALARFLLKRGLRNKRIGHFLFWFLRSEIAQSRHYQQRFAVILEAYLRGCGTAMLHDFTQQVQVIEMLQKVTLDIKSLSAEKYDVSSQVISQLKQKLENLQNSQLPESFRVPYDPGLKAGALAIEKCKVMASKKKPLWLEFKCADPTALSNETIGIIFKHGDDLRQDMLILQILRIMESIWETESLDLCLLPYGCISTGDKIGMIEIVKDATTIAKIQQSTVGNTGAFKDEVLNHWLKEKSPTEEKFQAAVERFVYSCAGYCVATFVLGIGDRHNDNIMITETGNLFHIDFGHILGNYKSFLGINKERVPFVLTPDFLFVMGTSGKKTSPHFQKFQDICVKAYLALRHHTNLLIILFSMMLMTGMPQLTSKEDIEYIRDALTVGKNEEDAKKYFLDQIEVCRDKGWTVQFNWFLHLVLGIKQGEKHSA
Description: as §1, §2

PI3Kβ = PI3Kβ (Homo sapiens (Human), UniProt P42338); assay: PI3Kβ enzyme activity inhibition IC50 evaluation assay; type: biochemical; conditions: ratio PI3Kβ vs PI3Kδ
PI3Kβ, sequence (P42338 whole entry): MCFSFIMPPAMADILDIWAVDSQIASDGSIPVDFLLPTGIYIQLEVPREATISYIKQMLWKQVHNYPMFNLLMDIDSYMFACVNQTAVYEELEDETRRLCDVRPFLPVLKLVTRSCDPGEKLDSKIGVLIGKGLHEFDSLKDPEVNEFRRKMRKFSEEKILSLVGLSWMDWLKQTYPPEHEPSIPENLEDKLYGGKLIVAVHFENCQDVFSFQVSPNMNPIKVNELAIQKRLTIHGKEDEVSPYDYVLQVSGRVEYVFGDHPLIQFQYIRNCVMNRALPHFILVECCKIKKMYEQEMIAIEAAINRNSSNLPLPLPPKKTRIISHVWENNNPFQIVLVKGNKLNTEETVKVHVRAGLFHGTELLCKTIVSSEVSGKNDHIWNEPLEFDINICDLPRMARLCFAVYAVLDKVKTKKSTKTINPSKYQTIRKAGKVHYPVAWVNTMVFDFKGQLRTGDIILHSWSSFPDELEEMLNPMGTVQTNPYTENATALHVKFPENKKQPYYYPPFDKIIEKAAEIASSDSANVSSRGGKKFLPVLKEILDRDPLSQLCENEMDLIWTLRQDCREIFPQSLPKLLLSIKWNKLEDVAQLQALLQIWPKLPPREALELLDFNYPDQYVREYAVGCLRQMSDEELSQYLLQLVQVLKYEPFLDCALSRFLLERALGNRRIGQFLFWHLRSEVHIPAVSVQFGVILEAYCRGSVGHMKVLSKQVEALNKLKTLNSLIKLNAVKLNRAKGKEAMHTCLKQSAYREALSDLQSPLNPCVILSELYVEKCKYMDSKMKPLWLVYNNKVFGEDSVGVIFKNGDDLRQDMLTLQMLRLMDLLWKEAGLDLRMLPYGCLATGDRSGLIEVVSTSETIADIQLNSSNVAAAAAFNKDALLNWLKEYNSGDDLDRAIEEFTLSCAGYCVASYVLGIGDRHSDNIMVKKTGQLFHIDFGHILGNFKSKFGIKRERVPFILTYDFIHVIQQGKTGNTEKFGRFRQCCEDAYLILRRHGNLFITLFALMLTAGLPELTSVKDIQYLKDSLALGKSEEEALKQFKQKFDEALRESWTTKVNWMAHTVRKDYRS
PI3Kβ, sequence (P27986 whole entry partner): as the sequence (P27986 whole entry partner) above
Description: as §1, §2

Row | Structure (SMILES) | IC50 (Raji cells; Homo sapiens) [µM] | α/δ selectivity (PI3Kα) | IC50 (PI3Kδ) [µM] | γ/δ selectivity (PI3Kγ) | β/δ selectivity (PI3Kβ) | IC50 (Raji cells) [µM]
1 | CC[C@H](Nc1ncnc2[nH]cnc12)c1nc2cccc(F)c2c(=O)n1-c1ccccc1 [CAL-101, idelalisib, reference compound] | 0.0298 | – | – | – | – | –
2 | CC(C)(O)C1CCN(Cc2csc3c(-c4cccc5[nH]ccc45)nc(N4CCOCC4)nc23)CC1 [Compound 4] | – | >282 | 0.0354 | >282 | >282 | –
3 | Cc1sc2c(-c3cccc4[nH]ccc34)nc(N3CCOCC3)nc2c1CN1CCN(C(=O)CO)CC1 [Compound 8] | – | 90 | 0.072 | 57 | 27 | –
4 | c1cc(-c2nc(N3CCOCC3)nc3c(CN4CCN(C5CCOCC5)CC4)csc23)c2cc[nH]c2c1 [Compound 10] | – | >400 | 0.025 | – | – | 0.028
5 | c1cc(-c2nc(N3CCOCC3)nc3c(CN4CCN(C5COC5)CC4)csc23)c2cc[nH]c2c1 [Compound 11] | – | >588 | 0.017 | – | – | 0.0411
6 | CC(=O)N1CCN(Cc2csc3c(-c4cccc5[nH]ccc45)nc(N4CCOCC4)nc23)CC1 [Compound 14] | – | 700 | 0.0038 | – | – | 0.0256
7 | COc1ncc(-c2nc(N3CCOCC3)nc3c(CN4CCC(C(C)(C)O)CC4)c(C)sc23)cc1NS(C)(=O)=O [Compound 60] | – | 147 | 0.0071 | – | – | 0.002
8 | COc1ncc(-c2nc(N3CCOCC3)nc3c(CN4CCN(C(=O)CO)CC4)c(C)sc23)cc1NS(C)(=O)=O [Compound 71] | – | 13 | 0.0068 | – | – | 0.0086
9 | COc1ncc(-c2nc(N3CCOCC3)nc3c(CN4CCC(C(C)(C)O)CC4)c(C)sc23)cc1NS(=O)(=O)C1CC1 [Compound 79] | – | 582 | 0.0094 | – | – | 0.0145
10 | COc1ncc(-c2nc(N3CCOCC3)nc3c(CN4CCC(OC)CC4)c(C)sc23)cc1NS(=O)(=O)C1CC1 [Compound 81] | – | 374 | 0.024 | – | – | 0.043
11 | COc1ncc(-c2nc(N3CCOCC3)nc3c(CN4CCN(C(=O)C(F)(F)F)CC4)c(C)sc23)cc1NS(=O)(=O)C1CC1 [Compound 82] | – | 143 | 0.015 | – | – | 0.0768
12 | COc1ncc(-c2nc(N3CCOCC3)nc3c(CN4CCN(CC(F)(F)F)CC4)c(C)sc23)cc1NS(=O)(=O)C1CC1 [Compound 84] | – | >213 | 0.047 | – | – | 0.0304
13 | COc1ncc(-c2nc(N3CCOCC3)nc3c(CN4CCCCC4)c(C)sc23)cc1NS(C)(=O)=O [Compound 86] | – | 136 | 0.012 | 402 | 25 | –
14 | COc1ncc(-c2nc(N3CCOCC3)nc3c(CN4CCN(C(C)(C)C)CC4)c(C)sc23)cc1NS(C)(=O)=O [Compound 89] | – | 48 | 0.0026 | – | – | 0.0013
15 | COc1ncc(-c2nc(N3CCOCC3)nc3c(CN4CCN(C(=O)C(F)(F)F)CC4)c(C)sc23)cc1NS(C)(=O)=O [Compound 90] | – | 69 | 0.0049 | – | – | 0.0312
16 | COc1ncc(-c2nc(N3CCOCC3)nc3c(CN4CCN(C(C)C)CC4)c(C)sc23)cc1NS(C)(=O)=O [Compound 91] | – | 60 | 0.0032 | – | – | 0.0034
17 | COc1ncc(-c2nc(N3CCOCC3)nc3c(CN4CCC(C)(C)CC4)c(C)sc23)cc1NS(C)(=O)=O [Compound 99] | – | 152 | 0.034 | 244 | 24 | –
18 | COc1ncc(-c2nc(N3CCOCC3)nc3c(CN4CCN(C(=O)CC#N)CC4)c(C)sc23)cc1NS(C)(=O)=O [Compound 100] | – | 17 | 0.017 | – | – | 0.0057
19 | COc1ncc(-c2nc(N3CCOCC3)nc3c(CN4CCCC4)c(C)sc23)cc1NS(C)(=O)=O [Compound 102] | – | 146 | 0.0093 | 200 | 16 | –

Row | Structure (SMILES) | IC50 (Raji cells; Homo sapiens) [µM] | α/δ selectivity (PI3Kα) | IC50 (PI3Kδ) [µM] | γ/δ selectivity (PI3Kγ) | β/δ selectivity (PI3Kβ) | IC50 (Raji cells) [µM]
20 | CCOC1CCN(Cc2c(C)sc3c(-c4cnc(OC)c(NS(C)(=O)=O)c4)nc(N4CCOCC4)nc23)CC1 [Compound 103] | – | 176 | 0.0084 | – | – | 0.0093
21 | COc1ncc(-c2nc(N3CCOCC3)nc3c(CN4CCC5(CC4)OCCO5)c(C)sc23)cc1NS(C)(=O)=O [Compound 104] | – | 159 | 0.0043 | 377 | 19 | –
22 | COc1ncc(-c2nc(N3CCOCC3)nc3c(CN4CCC5(CC4)CNC5)c(C)sc23)cc1NS(C)(=O)=O [Compound 106] | – | 129 | 0.0255 | >392 | 72 | –
23 | COc1ncc(-c2nc(N3CCOCC3)nc3c(CN4CC(N(C)C)C4)c(C)sc23)cc1NS(C)(=O)=O [Compound 121] | – | 192 | 0.016 | – | – | 0.0337
24 | COc1ncc(-c2nc(N3CCOCC3)nc3c(CN4CCC(N5CCC[C@H]5CO)CC4)c(C)sc23)cc1NS(C)(=O)=O [Compound 126] | – | 170 | 0.0047 | – | – | 0.0039
25 | COc1ncc(-c2nc(N3CCOCC3)nc3c(CN4CCC(N5CCC[C@@H]5C)CC4)c(C)sc23)cc1NS(C)(=O)=O [Compound 127] | – | 38 | 0.0058 | – | – | 0.0015
26 | COc1ncc(-c2nc(N3CCOCC3)nc3c(CN4CCC5(CC4)CC5)c(C)sc23)cc1NS(C)(=O)=O [Compound 137] | – | 309 | 0.011 | – | – | –
27 | COc1ncc(-c2nc(N3CCOCC3)nc3c(CN4CCc5ccccc5C4)c(C)sc23)cc1NS(C)(=O)=O [Compound 138] | – | 67 | 0.034 | – | – | –
28 | COc1ncc(-c2nc(N3CCOCC3)nc3c(CN4CCC(S(C)(=O)=O)CC4)c(C)sc23)cc1NS(C)(=O)=O [Compound 139] | – | 69 | 0.0032 | – | – | –
29 | COc1ncc(-c2nc(N3CCOCC3)nc3c(CN4CCN(C)C(=O)C4)c(C)sc23)cc1NS(C)(=O)=O [Compound 140] | – | 55 | 0.0032 | – | – | –
30 | COc1ncc(-c2nc(N3CCOCC3)nc3c(CN4CC5CC5C4)c(C)sc23)cc1NS(C)(=O)=O (centres unmarked) [Compound 141] | – | 120 | 0.009 | – | – | –
31 | COc1ncc(-c2nc(N3CCOCC3)nc3c(CN4CCN(CC(C)(C)O)CC4)c(C)sc23)cc1NS(C)(=O)=O [Compound 142] | – | 60 | 0.0037 | – | – | –
32 | COc1ncc(-c2nc(N3CCOCC3)nc3c(CN4CCc5sccc5C4)c(C)sc23)cc1NS(C)(=O)=O [Compound 143] | – | 107 | 0.032 | – | – | –
33 | COc1ncc(-c2nc(N3CCOCC3)nc3c(CN4CCn5ccnc5C4)c(C)sc23)cc1NS(C)(=O)=O [Compound 144] | – | 56 | 0.0034 | – | – | –
34 | COc1ncc(-c2nc(N3CCOCC3)nc3c(CN4CCC(OC(C)C)CC4)c(C)sc23)cc1NS(C)(=O)=O [Compound 145] | – | 287 | 0.0038 | – | – | –
35 | COc1ncc(-c2nc(N3CCOCC3)nc3c(CN4CCC(N5CC(F)(F)C5)CC4)c(C)sc23)cc1NS(C)(=O)=O [Compound 146] | – | 120 | 0.0029 | – | – | –
36 | COc1ncc(-c2nc(N3CCOCC3)nc3c(CN4CC(C(C)(C)O)C4)c(C)sc23)cc1NS(C)(=O)=O [Compound 151] | – | 41 | 0.015 | – | – | –
37 | COc1ncc(-c2nc(N3CCOCC3)nc3c(OC4CCOCC4)c(C)sc23)cc1NS(C)(=O)=O [Compound 152] | – | 12 | 0.0156 | – | – | –
